Assay results: ChEMBL document CHEMBL3396975, “Structural development of stapled short helical peptides as vitamin D receptor (VDR)-coactivator interaction inhibitors” (Bioorg Med Chem, 2015)
Starred links: 1 amine or outer side, 2 acyl side, 3 side chain; linkers in the order of their positions; H or OH if unused. Positions of bridges follow the written chain, without caps; N, C: chain ends. Non-standard residues stand in square brackets, D forms with d. Residues, ends and D or L forms follow the SMILES beside them. *: point of attachment. X2 = O=C(C(CO)(CO)N[*:1])[*:2]; X1 = OC(C[*:1])C(O)C[*:2]; hSer = N[C@@H](CCO)C(=O)O; X3 = C(CC[*:2])C[*:1]; Aib = CC(C)(N)C(=O)O; Allyl = C=CC*

Molecular target: T1, Vitamin D3 receptor (Homo sapiens, UniProt P11473)
T1 sequence (P11473 whole entry): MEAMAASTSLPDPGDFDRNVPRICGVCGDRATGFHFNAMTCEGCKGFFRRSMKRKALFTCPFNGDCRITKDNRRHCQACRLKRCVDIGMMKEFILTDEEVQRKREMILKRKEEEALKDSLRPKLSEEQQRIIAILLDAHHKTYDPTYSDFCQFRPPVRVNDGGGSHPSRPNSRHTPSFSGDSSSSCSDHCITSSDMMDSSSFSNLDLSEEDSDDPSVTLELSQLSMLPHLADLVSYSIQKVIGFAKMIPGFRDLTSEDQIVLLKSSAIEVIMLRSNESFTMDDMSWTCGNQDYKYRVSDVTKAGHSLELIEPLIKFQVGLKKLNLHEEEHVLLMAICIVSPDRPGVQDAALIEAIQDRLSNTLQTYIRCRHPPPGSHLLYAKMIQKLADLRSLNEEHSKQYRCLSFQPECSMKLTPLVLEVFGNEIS
Experiment: Inhibition of human VDR-cofactor interaction by EnBio receptor cofactor assay system

Compared with `CC(=O)N[C@@H](CC(C)C)C(=O)N[C@@H](CC(C)C)C(=O)N[C@H]1CCOCC(O)C(O)COCC[C@@H](C(N)=O)NC(=O)[C@H](CC(C)C)NC(=O)[C@H](CC(C)C)NC(=O)C(C)(C)NC1=O` (stereo partly drawn) (Ac-LL[hSer][Aib]LL[hSer]-NH2; linker 3-7 via X1), `CC(=O)N[C@@H](CC(C)C)C(=O)N[C@@H](CC(C)C)C(=O)N[C@H]1CCOCCCCOCC[C@@H](C(N)=O)NC(=O)[C@H](CC(C)C)NC(=O)[C@H](CC(C)C)NC(=O)C(CO)(CO)NC1=O` (Ac-LL[hSer][X2]LL[hSer]-NH2; linker 3-7 via X3) is 3.4-fold lower in IC50: 67 µM for the first, 20 µM for the second.

`C=CCOCC[C@H](NC(=O)[C@H](CC(C)C)NC(=O)[C@H](CC(C)C)NC(=O)C(C)(C)NC(=O)[C@H](CCOCC=C)NC(=O)[C@H](CC(C)C)NC(=O)[C@@H](N)CC(C)C)C(=O)O` (H-LL[hSer](Allyl)[Aib]LL[hSer](Allyl)-OH) gave an IC50 of 500 µM.
